Experimental data reported in ChEMBL document CHEMBL1131713, “Substituted piperidines--highly potent renin inhibitors due to induced fit adaptation of the active site” (Bioorg Med Chem Lett, 1999).
pIC50: −log10 of the molar value. Active and inactive are the calls of the source. No cut-off for these calls is given here.

Experiments:
Renin = target: T1, Renin (Homo sapiens, UniProt P00797); assay: In vitro inhibitory activity against purified recombinant human renin
T1 sequence (P00797 whole entry): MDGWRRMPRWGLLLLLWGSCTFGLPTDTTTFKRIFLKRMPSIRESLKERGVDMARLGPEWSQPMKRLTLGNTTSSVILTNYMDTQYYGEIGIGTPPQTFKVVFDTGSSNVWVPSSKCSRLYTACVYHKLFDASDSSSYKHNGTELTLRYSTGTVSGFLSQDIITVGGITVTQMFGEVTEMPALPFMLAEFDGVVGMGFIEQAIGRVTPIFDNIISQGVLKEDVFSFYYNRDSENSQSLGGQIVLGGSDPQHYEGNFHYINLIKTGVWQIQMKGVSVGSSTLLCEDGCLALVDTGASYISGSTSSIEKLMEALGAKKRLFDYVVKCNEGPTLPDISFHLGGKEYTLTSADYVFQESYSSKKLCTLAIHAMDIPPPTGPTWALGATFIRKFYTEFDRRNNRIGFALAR

[1] = target: Human immunodeficiency virus type 1 protease (Human immunodeficiency virus 1) (UniProt Q72874); assay: Inhibition against HIV protease; NA means no activity
Pepsin A (Sus scrofa) = Pepsin A (Sus scrofa) (UniProt P00791); assay: Inhibition against porcine pepsin; NA means no activity
Cathepsin D (Bos taurus) = target: T2, Cathepsin D (Bos taurus) (UniProt P80209); assay: Inhibition against bovine cathepsin D; NA means no activity
T2 sequence (whole entry): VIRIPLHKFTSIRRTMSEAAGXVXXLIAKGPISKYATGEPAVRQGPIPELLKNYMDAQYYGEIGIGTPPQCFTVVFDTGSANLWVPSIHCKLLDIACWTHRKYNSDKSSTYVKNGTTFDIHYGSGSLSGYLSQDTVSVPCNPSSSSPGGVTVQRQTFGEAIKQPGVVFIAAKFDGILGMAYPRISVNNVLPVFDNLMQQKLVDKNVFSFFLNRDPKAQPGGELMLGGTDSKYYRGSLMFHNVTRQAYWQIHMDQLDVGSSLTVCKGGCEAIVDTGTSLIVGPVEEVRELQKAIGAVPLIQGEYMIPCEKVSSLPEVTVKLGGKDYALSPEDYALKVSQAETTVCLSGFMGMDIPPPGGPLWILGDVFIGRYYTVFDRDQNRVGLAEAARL

Pepsin A (Sus scrofa), sequence (P00791 60-385 limits assumed): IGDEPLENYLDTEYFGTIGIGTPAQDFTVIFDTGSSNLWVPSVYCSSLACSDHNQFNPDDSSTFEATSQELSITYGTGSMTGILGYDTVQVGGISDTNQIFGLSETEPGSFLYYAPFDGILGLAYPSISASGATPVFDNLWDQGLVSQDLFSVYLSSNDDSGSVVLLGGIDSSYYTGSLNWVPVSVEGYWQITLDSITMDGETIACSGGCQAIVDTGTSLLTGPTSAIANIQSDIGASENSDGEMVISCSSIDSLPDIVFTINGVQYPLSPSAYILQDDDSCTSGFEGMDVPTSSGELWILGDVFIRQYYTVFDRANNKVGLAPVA

Structure (SMILES): COc1ccc(CO[C@H]2CNCC[C@@H]2c2ccc(Cl)cc2)cc1
- pIC50 (Renin): 4.59

Structure (SMILES): COc1ccc(CO[C@@H]2CNCC[C@H]2c2ccc(Cl)cc2)cc1
- pIC50 (Renin): 2.92

Structure (SMILES): O=C(OCCOc1ccc([C@H]2CCNC[C@@H]2OCc2ccc3ccccc3c2)cc1)c1cccnc1 (racemic)
- pIC50 (Renin): 6.24

Structure (SMILES): c1ccc(COCCOc2ccc([C@H]3CCNC[C@@H]3OCc3ccc4ccccc4c3)cc2)cc1 (racemic)
- pIC50 (Renin): 7.28

Structure (SMILES): O=C(OCCOc1ccc([C@H]2CCNC[C@@H]2OCc2ccc3ccccc3c2)cc1)c1ccccc1 (racemic)
- pIC50 (Renin): 7.59

Structure (SMILES): c1ccc(COCCCOc2ccc([C@H]3CCNC[C@@H]3OCc3ccc4ccccc4c3)cc2)nc1 (racemic)
- pIC50 (Renin): 6.68

Structure (SMILES): O=S(=O)(NCc1ccc([C@H]2CCNC[C@@H]2OCc2ccc3ccccc3c2)cc1)c1ccccc1 (racemic)
- pIC50 (Renin): 4.40

Structure (SMILES): c1ccc(OCCCOCc2ccc([C@H]3CCNC[C@@H]3OCc3ccc4ccccc4c3)cc2)cc1 (racemic)
- pIC50 (Renin): 6.27

Structure (SMILES): O=C(CCCOc1ccc([C@H]2CCNC[C@@H]2OCc2ccc3ccccc3c2)cc1)c1ccccc1 (racemic)
- pIC50 (Renin): 6.66

Structure (SMILES): COc1cccc(C(=O)OCc2ccc([C@H]3CCNC[C@@H]3OCc3ccc4ccccc4c3)cc2)c1 (racemic)
- pIC50 (Renin): 7.06

Structure (SMILES): c1ccc(OCCCCOc2ccc([C@H]3CCNC[C@@H]3OCc3ccc4ccccc4c3)cc2)cc1 (racemic)
- pIC50 (Renin): 6.66

Structure (SMILES): O=C(OCc1ccc([C@H]2CCNC[C@@H]2OCc2ccc3ccccc3c2)cc1)c1ccccc1 (racemic)
- pIC50 (Renin): 7.26

Structure (SMILES): c1ccc(COCCCOc2ccc([C@H]3CCNC[C@@H]3OCc3ccc4ccccc4c3)cc2)cc1 (racemic)
- pIC50 (Renin): 8.10

Structure (SMILES): c1ccc(CCOCCOc2ccc([C@H]3CCNC[C@@H]3OCc3ccc4ccccc4c3)cc2)cc1 (racemic)
- pIC50 (Renin): 6.80

Structure (SMILES): c1ccc(COCCOCc2ccc([C@H]3CCNC[C@@H]3OCc3ccc4ccccc4c3)cc2)cc1 (racemic)
- pIC50 (Renin): 7.04

Structure (SMILES): COc1ccc(COC2CNCCC2c2ccc(Cl)cc2)cc1 (racemic)
- Activity [1]: inactive
- Activity (Pepsin A (Sus scrofa)): inactive
- Activity (Cathepsin D (Bos taurus)): inactive
- pIC50 (Renin): 4.30

Structure (SMILES): COc1ccccc1COCCCOc1ccc([C@H]2CCNC[C@@H]2OCc2ccc3ccccc3c2)cc1 (racemic)
- pIC50 (Renin): 8.82

Structure (SMILES): COc1ccc(C(=O)NCc2ccc([C@H]3CCNC[C@@H]3OCc3ccc4ccccc4c3)cc2)cc1 (racemic)
- pIC50 (Renin): < 3.00

Structure (SMILES): c1ccc(OCCOCc2ccc([C@H]3CCNC[C@@H]3OCc3ccc4ccccc4c3)cc2)cc1 (racemic)
- pIC50 (Renin): 6.80

Structure (SMILES): c1ccc(COCCCCOc2ccc([C@H]3CCNC[C@@H]3OCc3ccc4ccccc4c3)cc2)cc1 (racemic)
- pIC50 (Renin): 7.00

Structure (SMILES): COc1ccccc1COCCCOc1ccc([C@H]2CCNC[C@@H]2OCc2cc(OC)c3ccccc3c2OC)cc1 (racemic)
- pIC50 (Renin): 10.22

Structure (SMILES): c1ccc(-c2noc(COc3ccc([C@H]4CCNC[C@@H]4OCc4ccc5ccccc5c4)cc3)n2)cc1 (racemic)
- pIC50 (Renin): 7.39

Structure (SMILES): O=C(NCCOc1ccc([C@H]2CCNC[C@@H]2OCc2ccc3ccccc3c2)cc1)c1ccccc1 (racemic)
- pIC50 (Renin): 5.59

Structure (SMILES): c1ccc(COCCCOCc2ccc([C@H]3CCNC[C@@H]3OCc3ccc4ccccc4c3)cc2)cc1 (racemic)
- pIC50 (Renin): 6.13

Structure (SMILES): c1cncc(-c2noc(COc3ccc([C@H]4CCNC[C@@H]4OCc4ccc5ccccc5c4)cc3)n2)c1 (racemic)
- pIC50 (Renin): 6.06

Structure (SMILES): CC(C)(C)S(=O)(=O)C[C@@H](Cc1ccccc1)C(=O)N[C@@H](Cc1cnc[nH]1)C(=O)N[C@@H](CC1CCCCC1)[C@@H](O)[C@@H](O)C1CC1 [REMIKIREN]
- pIC50 (Renin): 10.60
